Entries after “also recorded” stand apart in the source; their conditions may differ.
What was measured:
[1] = test system: cultured cancer cells (colon, NSCLC, glioblastoma, diffuse large B-cell and cutaneous T-cell lymphoma, multiple myeloma, Waldenstrom's macroglobulinemia); conditions: cited from earlier work
[2] = test system: VEGF induced angiogenesis; conditions: oral dosing, plasma exposure similar to human clinical trials; cited from earlier work
[3] = test system: human cancer xenografts (colorectal carcinomas, glioblastomas, diffuse large B-Cell lymphomas, Waldenstrom's macroglobulinemia, multiple myeloma); conditions: single-agent treatment; cited from earlier work
DLBCL patients [4] = experiment: S028 phase 2 DLBCL 1st line trial, enzastaurin in combination with R-CHOP; type: in vivo, human
Protocol: Thus, subgroup analysis was conducted using both IPI and rs309605 and rs309604.

[5] = test system: other PKC isoforms (α, γ, ε); conditions: Graff et al. 2005; read-out: IC50s other PKC isoforms (α, γ, ε); cited from earlier work
GBM patients = experiment: S008 GBM phase 1/2 first line trial; type: in vivo, human
Source text: FIG. 4A is a Kaplan-Meier plot showing time to overall survival in the AA+AB group and BB group. FIG. 4B is a Kaplan-Meier plot showing time to overall survival in the chromaturia group and non-chromaturia group.
The DNA samples from blood of GBM patients in S008 trials were used to genotype rs309605 by Taqman assay.

DLBCL patients [6] = experiment: Prelude phase 3 DLBCL maintenance trial, survival analysis by chromaturia and rs309605 genotype; type: in vivo, human
Source text: Prelude trial is a multicenter, phase 3, randomized, double-blind, placebo-controlled trial enrolled patients at high risk of recurrence following rituximab-cyclophosphamide, doxorubicin, vincristine, and prednisone (R-CHOP). […] Primary endpoint was DFS 3 years after the last patient entered treatment (FIG. 1A).
Unlike most oncology biomarker studies focusing on mutations or target protein overexpression in tumor cells, germline genetic polymorphisms also contribute to the various responses to the same drug in different patients.
For both rs309605 and rs309604, allele A represents T and allele B represents C. […] A p-value smaller than 5×10^−8 is usually considered the threshold for genome-wide significance.
To examine whether rs309605 is merely a prognostic biomarker, DNA samples from 238 patients from placebo control group were genotyped at rs309605 using the Taqman SNP assays.

[7] = enzastaurin arm, rs309605/rs309604
[8] = enzastaurin arm, rs309605/rs309604, p-value 5.75×10^−9

For Cn1cc(C2=C(c3cn(C4CCN(Cc5ccccn5)CC4)c4ccccc34)C(=O)NC2=O)c2ccccc21 [enzastaurin, 3-(1-methyl-1H-indol-3-yl)-4-[1-[1-(pyridin-2-ylmethyl)piperidin-4-yl]-1H-indol-3-yl]-1H-pyrrole-2,5-dione], the “intracellular signaling through the PKC and PI3K/AKT pathways” value ([1]; clinically relevant concentrations, suppresses phosphorylation of AKT, mTOR, p70S6K, S6, 4EBP1, CREB, GSK3β) is listed as “blocks intracellular signaling through the PKC and PI3K/AKT pathways”, the tumor cell apoptosis ([1]; cultured cancer cells) is listed as “induces tumor cell apoptosis” and the tumor cell proliferation ([1]; cultured cancer cells) is listed as “inhibits tumor cell proliferation”. For the same compound, the VEGF induced angiogenesis [2] was “suppresses VEGF induced angiogenesis”, the “growth of human cancer xenografts” value [3] was “suppresses growth of multiple human cancer xenografts” and the “survival, AA+AB vs BB genotype at rs309605” value (DLBCL patients [4]; enzastaurin treatment arm, with R-CHOP) was “significant better survival”. For the same compound, the “overall survival, enzastaurin arm vs control arm” value (DLBCL patients [4]; general patient population, with R-CHOP) was “no significant difference”, the “Progression Free (PFS) survival and overall survival, enzastaurin arm” value (DLBCL patients [4]; patients AA+AB at rs309605 and rs309604 and IPI>2) was “superior efficacy” and the IC50 [5] was 40 to 100 nM. The “overall survival, AA or AB genotype vs BB genotype at rs309605” value (GBM patients) was “better overall survival”, the “survival, chromaturia vs without chromaturia” value (GBM patients) was “significant improved survival” and the “overall survival, AA+AB vs BB genotype in patients without chromaturia” value (DLBCL patients [6]; 177 enzastaurin treated patients without chromaturia) was “no significant difference in overall survival”. For the same compound, the “Event per 1000 person-month” value (DLBCL patients [6]; AA + AB (rs309605), Chrom) was 0.65 per 1000 person-month, the “Number of events (OS)” value (DLBCL patients [6]; AA + AB (rs309605), Chrom, N 82) was 3 and the “Event per 1000 person-month” value (DLBCL patients [6]; AA + AB (rs309605), Non-Chrom) was 3.69 per 1000 person-month. The “Number of events (OS)” value (DLBCL patients [6]; AA + AB (rs309605), Non-Chrom, N 158) was 27, the “Event per 1000 person-month” value (DLBCL patients [6]; All types (AA, AB, BB), Chrom) was 1.96 per 1000 person-month and the “Number of events (OS)” value (DLBCL patients [6]; All types (AA, AB, BB), Chrom, N 95) was 10. The “Event per 1000 person-month” value (DLBCL patients [6]; All types (AA, AB, BB), Non-Chrom) was 4.83 per 1000 person-month, the “Number of events (OS)” value (DLBCL patients [6]; All types (AA, AB, BB), Non-Chrom, N 187) was 41 and the “number of patients who survived, AA+AB genotype” value (DLBCL patients [6]; [7]) was 209. The “number of patients who survived, BB genotype” value (DLBCL patients [6]; [7]) was 22, the “number of patients who had events, AA+AB genotype” value (DLBCL patients [6]; [8]) was 31 and the “number of patients who had events, BB genotype” value (DLBCL patients [6]; [8]) was 22. For the same compound, the “overall survival, AA+AB genotype vs BB genotype” value (DLBCL patients [6]; enzastaurin treated arm, rs309605 and rs309604) was “significantly improved survival; also recorded: significant longer overall survival”, the “overall survival, AA+AB genotype at rs309605 with chromaturia” value (DLBCL patients [6]; interaction of genotype and chromaturia, p value=0.017) was “best overall survival” and the “overall survival / efficacy, enzastaurin arm vs placebo arm” value (DLBCL patients [6]; overall patient population, N=504 vs N=254, 500 mg daily oral) was “failed to demonstrate statistically significant efficacy; also recorded: no significant difference”.

Source: US11421280B2 (DENOVO BIOPHARMA LLC, priority 2016, dated 2022)
